Reference: patent publication US20130209431A1, “ISOLATION AND CULTURE OF ERYTHROID PROGENITOR CELLS” (NEW YORK BLOOD CENTER, INC., priority 2012, published 2013)

Assays:
[1] = tested on: CD34+CD36−IL-3R+ cells (BFU-E cells); assay: Liquid culture of sorted BFU-E cells, cell numbers counted every day; assay type: cell-based, human
Procedure: (§1) Cells from day 5 cultures were used for sorting since at this time the cultured cells contain about equal numbers of BFU-E and CFU-E forming progenitors. 50×10^6 cells were suspended in 4 mL PBS/0.5% BSA in a 50 mL tube. Cells were blocked with 4% human AB serum for 10 min and subsequently incubated with PE-conjugated mouse anti-human CD34, FITC-conjugated mouse anti-human CD36 and PE-Cy7-conjugated mouse anti-human IL3-R on ice for 30 min in the dark. Cells were washed twice with 40 mL PBS/0.5% BSA and re-suspended in 5 mL PBS/0.5% BSA and stained with the viability marker 7-AAD on ice for 10 min in the dark. Sorting was performed on a MOFLO high-speed cell sorter (Beckman-Coulter). To sort BFU-E and CFU-E cells from primary human bone marrow, we first obtained mononuclear cells by Ficoll density gradient separation. We then obtained CD45^+ cells by positive selection using CD45 magnetic beads. The CD45^+ cells were stained with PE-conjugated mouse anti-human CD34, FITC-conjugated mouse anti-human CD36, PE-Cy7-conjugated mouse anti-human IL3-R, APC-cy7-conjugated mouse anti-human CD45 and APC-conjugated mouse anti-human CD71 for 30 min in the dark. Cells were washed twice with 40 mL PBS/0.5% BSA, re-suspended in 5 mL PBS/0.5% BSA and stained with the viability marker 7-AAD on ice for 10 min in the dark. Sorting was performed on a MOFLO high-speed cell sorter (Beckman-Coulter).
(§2) 0.1×10^6 of sorted BFU-E and the CFU-E cells were cultured in 1 ml of the first phase culture media (as described before) in the absence or presence of dexamethasone (1 μM) or lenalidomide (10 nM). The cell numbers were counted every day.

[2] = tested on: CD34−CD36+IL-3R− cells (CFU-E cells); assay: Liquid culture of sorted CFU-E cells, cell numbers counted every day; assay type: cell-based, human
Procedure: as §1, with “Cells were washed twice with 40 mL PBS/0.5% BSA, re-suspended in 5 mL PBS/0.5% BSA and stained with the viability marker 7-AAD on ice for 10 min in the dark. Sorting was performed on a MOFLO high-speed cell sorter (Beckman-Coulter).” left out
as §2

CFU-E cells = assay: Flow cytometry of GPA surface expression on cultured CFU-E cells (self-renewal); assay type: cell-based, human; settings: cultured for 6 days in the presence of lenalidomide
Procedure: Cells taken from culture every day (day 1 to day 7) were analyzed for cell surface expression of CD34, IL-3R, CD36, CD71, CD45 and GPA using FACS canto flow cytometer (Becton Dickinson). Cultured cells (1×10^5) were suspended in PBS supplemented with 0.5% BSA and incubated with 4% human AB serum for 10 min on ice in the dark. The cells were subsequently incubated with fluorochrome-conjugated antibodies for 30 min at 4° C. and then washed once with PBS-0.5% BSA. The washed cells were then incubated for 10 min on ice in the dark with 7-AAD for identification of dead cells. All the reactions were performed under conditions of antibody saturation. Electronic compensation was done using unstained samples.
as §2
Next, the effect of lenalidomide on CFU-E cells was examined. In this population, the expression of GPA was determined since GPA becomes positive as CFU-E cells differentiate into proerythroblasts. […] These findings imply that lenalidomide promotes self-renewal of the CFU-E cells.

human CD34+ cells = settings: cited from earlier work

Row | SMILES | expansion of CD34+CD36−IL-3R+ cells in the presence versus absence of dexamethasone ([1]; dexamethasone 1 μM) [fold] | expansion of CD34+CD36−IL-3R+ cells ([1]; dexamethasone 1 μM, from 0.1×10^6 cells, untreated 70-fold) [fold] | cell number reached by CD34+CD36−IL-3R+ cells ([1]; dexamethasone 1 μM, start 0.1×10^6, untreated 7×10^6) | duration of continued proliferation of CD34+CD36−IL-3R+ cells ([1]; dexamethasone 1 μM, untreated 6 days) [days] | reduction of BFU-E cell doubling time ([1]; in the presence of dexamethasone) [%] | effect on the proliferation of CD34+CD36−IL-3R+ cells ([1]; lenalidomide 10 nM) | response of CD34−CD36+IL-3R− cell proliferation to treatment ([2]; dexamethasone 1 μM or lenalidomide 10 nM) | increase of CD34−CD36+IL-3R− cell numbers every day ([2]; lenalidomide 10 nM, doubled every 24 hours in the absence) | surface expression of GPA on CFU-E cells (CFU-E cells) | effect on BFU-E colony formation (human CD34+ cells) | effect on CFU-E colony formation (human CD34+ cells)
1 | C[C@@H]1C[C@H]2[C@@H]3CCC4=CC(=O)C=C[C@]4(C)[C@@]3(F)[C@@H](O)C[C@]2(C)[C@@]1(O)C(=O)CO [dexamethasone] | ~20 | 1300 | 130×10^6 | 9 | 33 | – | – | – | – | – | –
2 | Nc1cccc2c1CN(C1CCC(=O)NC1=O)C2=O (centres unmarked) [lenalidomide] | – | – | – | – | – | no effect | enhanced the proliferation and expansion | tripled | remains negative | not BFU-E colony | promotes CFU-E colony formation
